Test results as given in patent publication US6750223B2, “4-Anilino[2,3-b]quinoline derivatives, their preparation processes and pharmaceutical compositions comprising the same” (Kaohsiung Medical University, priority 2002, dated 2004).
Where two headings read alike, the source gives them in different places.

Tests used:
[1] = system: renal cancer (786-0, A498, ACHN, CAKI-1, RXF 393, SN12C, TK-10, and UO-31); assay: NCI in vitro anticancer screen, renal cancer subpanel; format: cell-based, human; settings: read-out: GI50 Renal cancer
[2] = system: melanoma (LOX IMVI, MALME-3M, M14, SK-MEL-2, SK-MEL-28, SK-MEL-5, UACC-62, and UACC-257); assay: NCI in vitro anticancer screen, melanoma subpanel; format: cell-based, human; settings: read-out: GI50 Melanoma
[3] = system: NCI's full panel of 60 human cancer cell lines; assay: NCI in vitro anticancer screen, full panel mean; format: cell-based
[4] = system: prostate cancer (PC-3 and DU-145); assay: NCI in vitro anticancer screen, prostate cancer subpanel; format: cell-based, human
[5] = system: breast cancer (MCF7, MCF7/ADR-RES, MDA-MB-231/ATCC, HS 578T, MDA-MB-435, MDA-N, and T-47D); assay: NCI in vitro anticancer screen, breast cancer subpanel; format: cell-based, human; settings: read-out: GI50 Breast cancer
[6] = system: non-small cell lung cancer (A549/ATCC, EKVX, HOP-62, HOP-92, NCI-H226, NCI-H23, NCI-H322M, NCI-H460, and NCI-H522); assay: NCI in vitro anticancer screen, non-small-cell lung cancer subpanel; format: cell-based, human
[7] = system: leukemia (CCRF-CEM, HL-60 (TB), K-562, MOLT-4, RPMI-8226, and SR); assay: NCI in vitro anticancer screen, leukemia subpanel; format: cell-based; settings: read-out: GI50 Leukemia
[8] = system: colon cancer (COLO 205, HCC-2998, HCT-116, HCT-15, HT29, KM12, and SW-620); assay: NCI in vitro anticancer screen, colon cancer subpanel; format: cell-based, human; settings: read-out: GI50 Colon cancer
[9] = system: ovarian cancer (IGROV1, OVCAR-3, OVCAR-4, OVCAR-5, OVCAR-8, and SK-OV-3); assay: NCI in vitro anticancer screen, ovarian cancer subpanel; format: cell-based, human; settings: read-out: GI50 Ovarian cancer
[10] = system: CNS cancer (SF-268, SF-295, SF-539, SNB-19, SNB-75, and U251); assay: NCI in vitro anticancer screen, CNS cancer subpanel; format: cell-based, human; settings: read-out: GI50 CNS cancer
NCI-H460 = assay: NCI in vitro anticancer screen, NCI-H460; format: cell-based, human
HOP-62 = assay: NCI in vitro anticancer screen, HOP-62; format: cell-based, human
HOP-92 = assay: NCI in vitro anticancer screen, HOP-92; format: cell-based, human
NCI-H226 = assay: NCI in vitro anticancer screen, NCI-H226; format: cell-based, human; settings: non-small-cell lung cancer cell line
A549/ATCC = assay: NCI in vitro anticancer screen, A549/ATCC; format: cell-based, human; settings: non-small-cell lung cancer cell line
NCI-H23 = assay: NCI in vitro anticancer screen, NCI-H23; format: cell-based, human; settings: non-small-cell lung cancer cell line
NCI-H522 = assay: NCI in vitro anticancer screen, NCI-H522; format: cell-based, human
NCI-H322M = assay: NCI in vitro anticancer screen, NCI-H322M; format: cell-based, human; settings: non-small-cell lung cancer cell line
EKVX = assay: NCI in vitro anticancer screen, EKVX; format: cell-based, human; settings: non-small-cell lung cancer cell line
[11] = Homo sapiens, mean values over all cell lines tested, read-out: GI50 MG_MID
[12] = Homo sapiens, DU-145, subpanel value, read-out: GI50 Prostate cancer
[13] = Homo sapiens, subpanel value, read-out: GI50 Non-small-cell lung cancer
[14] = Homo sapiens, subpanel value, concentration causing 50% cell growth inhibition
[15] = non-small-cell lung cancer cell line
[16] = mean over all cell lines, read-out: mean GI50

Row | Compound | GI50 ([1]; Homo sapiens, subpanel value) [µM] | GI50 ([2]; Homo sapiens, subpanel value) [µM] | GI50 [3, 11] [µM] | GI50 [4, 12] [µM] | melting point [°C] | GI50 ([5]; Homo sapiens, subpanel value) [µM] | GI50 [6, 13] [µM] | GI50 [7, 14] [µM] | GI50 ([8]; Homo sapiens, subpanel value) [µM] | GI50 ([9]; Homo sapiens, subpanel value) [µM] | GI50 ([10]; Homo sapiens, subpanel value) [µM] | GI50 [3, 16] [µM] | also measured
1 | Nc1cc(CO)cc(Nc2c3ccccc3nc3occc23)c1 [Compound 4, 3-(Furo[2,3-b]quinolin-4-ylamino)-5-(hydroxymethyl)aniline] | 37.7 | 38.6 | 31.1 | 53.6 | 236 to 237 | 23.9 | 40.9 | 23 | 25.2 | 47.7 | 45.9 | – | –
2 | CC(=O)c1ccc(Nc2c3ccccc3nc3occc23)cc1 [Compound 5, 1-[4-(Furo[2,3-b]quinolin-4-ylamino)phenyl]ethanone] | 0.035 | 0.018 | 0.025 | 0.021 | 220 to 221 | 0.017 | 1.75 | < 0.01 | 0.011 | 0.039 | 0.016 | 0.025 | GI50 (NCI-H460; Homo sapiens, NCI-H460): 0.01 µM; GI50 (HOP-62; Homo sapiens, HOP-62): < 0.01 µM; GI50 (HOP-62; [15]): < 0.01 µM; GI50 (HOP-92; Homo sapiens, HOP-92): 12.4 µM; GI50 (NCI-H226; Homo sapiens, NCI-H226): 0.31 µM; GI50 ([3]; Homo sapiens, all types of cancer cells tested except non-small-cell lung cancer, read-out: mean GI50 in each type of cancer cells): < 0.04 µM; GI50 ([6]; Homo sapiens, read-out: average GI50 non-small-cell lung cancer): 1.75 µM; GI50 (A549/ATCC; Homo sapiens, A549): 0.57 µM; GI50 (NCI-H23; Homo sapiens, NCI-H23): 0.037 µM; GI50 (NCI-H522; Homo sapiens, NCI-H522): < 0.01 µM; GI50 (NCI-H522; [15]): < 0.01 µM; GI50 (NCI-H322M; Homo sapiens, NCI-H322M): 0.68 µM
3 | C=C1CC(C)(c2ccc(Nc3c4ccccc4nc4occc34)cc2)OC1=O (centres unmarked) [Compound 6, 5-[4-(Furo[2,3-b]quinolin-4-ylamino)phenyl]-2,3,4,5-tetrahydro-5-methyl-3-methylidenefuran-2-one] | 4.76 | 1.71 | 1.77 | 1.32 | – | 3.27 | 5.59 | 0.9 | 1.56 | 1.92 | 5.3 | – | GI50 ([3]; Homo sapiens, mean over all cell lines, read-out: mean GI50): 1.77 µM
4 | CC(=O)c1cccc(Nc2c3ccccc3nc3occc23)c1 [Compound 7, 1-[3-(Furo[2,3-b]quinolin-4-ylamino)phenyl]ethanone] | 10.6 | 6.09 | 5.27 | 12 | 158 to 159 | 5.32 | 14.5 | 3.22 | 5.11 | 11.3 | 7.63 | 5.27 | –
5 | C/C(=N\O)c1ccc(Nc2c3ccccc3nc3occc23)cc1 [Compound 8a, (E)-1-[4-(Furo[2.3-b]quinolin-4-ylamino)phenyl]ethanone oxime] | – | – | – | – | – | – | – | – | – | – | – | 0.35 | GI50 ([1]; subpanel value): 2.68 µM; GI50 (EKVX): 4.03 µM; GI50 (NCI-H460; [15]): 0.21 µM; GI50 (HOP-62; [15]): 0.18 µM; GI50 (HOP-92; [15]): 10.9 µM; GI50 (NCI-H226): 11.5 µM; GI50 ([2]; subpanel value): 0.95 µM; GI50 ([3]; mean values over all cell lines tested, read-out: GI50 MG_MID): 0.35 µM; GI50 ([4]; subpanel value, read-out: GI50 Prostate cancer): 0.53 µM; GI50 ([5]; subpanel value): 0.42 µM; GI50 ([6]; subpanel value, read-out: GI50 Non-small-cell lung cancer): 4.44 µM; GI50 ([7]; subpanel value, concentration causing 50% cell growth inhibition): 0.14 µM; GI50 (A549/ATCC): 0.45 µM; GI50 ([8]; subpanel value): 0.17 µM; GI50 ([9]; subpanel value): 0.53 µM; GI50 ([10]; subpanel value): 0.35 µM; GI50 (NCI-H23): 0.38 µM; GI50 (NCI-H522): 0.074 µM; GI50 (NCI-H522; [15]): 0.074 µM; GI50 (NCI-H322M): 12.2 µM
6 | CO/N=C(\C)c1ccc(Nc2c3ccccc3nc3occc23)cc1 [Compound 8b, (E)-1-[4-(Furo[2,3-b]quinolin-4-ylamino)phenyl]ethanone O-Methyloxime] | 1.63 | 1.27 | 0.48 | 0.58 | 167 to 168 | 0.41 | 2.58 | 0.36 | 0.32 | 0.66 | 0.57 | 0.48 | GI50 (EKVX; Homo sapiens, EKVX): 3.78 µM; GI50 (NCI-H460; Homo sapiens, NCI-H460, non-small-cell lung cancer cell line): 0.56 µM; GI50 (HOP-62; Homo sapiens, HOP-62, non-small-cell lung cancer cell line): 0.35 µM; GI50 (HOP-92; Homo sapiens, HOP-92, non-small-cell lung cancer cell line): 12.1 µM; GI50 (NCI-H226; Homo sapiens, NCI-H226): 3.88 µM; GI50 (A549/ATCC; Homo sapiens, A549): 0.72 µM; GI50 (NCI-H23; Homo sapiens, NCI-H23): 0.57 µM; GI50 (NCI-H522; Homo sapiens, NCI-H522): < 0.01 µM; GI50 (NCI-H522; [15]): < 0.01 µM; GI50 (NCI-H322M; Homo sapiens, NCI-H322M): 1.22 µM
7 | C/C(=N\O)c1cccc(Nc2c3ccccc3nc3occc23)c1 [Compound 9a, (E)-1-[3-(Furo[2,3-b]quinolin-4-ylamino)phenyl]ethanone oxime] | 9.9 | 4.81 | 5.6 | 16.2 | 248 to 249 | 3.62 | 8.01 | 3.64 | 5.35 | 13.6 | 10.5 | 5.60 | –
8 | CO/N=C(\C)c1cccc(Nc2c3ccccc3nc3occc23)c1 [Compound 9b, (E)-1-[3-(Furo[2,3-b]quinolin-4-ylamino)phenyl]ethanone O-Methyloxime] | 12.6 | 8.5 | 7.56 | 17.9 | – | 8.68 | 10.9 | 4.23 | 6.67 | 11.6 | 11.5 | 7.56 | –
9 | CC(=O)c1ccc(Nc2c3ccccc3nc3occ(Cl)c23)cc1 [Compound 13, 1-[4-(3-Chlorofuro[2,3-b]quinolin-4-ylamino)phenyl]ethanone] | – | – | – | – | 245 to 247 | – | – | – | – | – | – | – | –
10 | COc1cccc2c1C(=O)c1c(O)c3c(c(O)c1C2=O)C[C@@](O)(C(C)=O)C[C@@H]3O[C@H]1C[C@H](N)[C@H](O)[C@H](C)O1 [DAM, Daunomycin, reference compound] | – | – | – | – | – | – | – | – | – | – | – | – | GI50 ([1]; Homo sapiens): 0.048 µM; GI50 ([2]; Homo sapiens): 0.047 µM; GI50 ([3]; Homo sapiens, read-out: GI50 MG_MID): 0.044 µM; GI50 ([4]; Homo sapiens, DU-145, read-out: GI50 Prostate cancer): 0.032 µM; GI50 ([5]; Homo sapiens): 0.11 µM; GI50 ([6]; Homo sapiens, read-out: GI50 Non-small-cell lung cancer): 0.043 µM; GI50 ([7]; Homo sapiens): < 0.01 µM; GI50 ([8]; Homo sapiens): 0.083 µM; GI50 ([9]; Homo sapiens): 0.062 µM; GI50 ([10]; Homo sapiens): 0.02 µM
11 | COc1cc(NS(C)(=O)=O)ccc1Nc1c2ccccc2nc2ccccc12 [m-AMSA, 4′-(9-acridinylamino)methanesulfonyl-m-anisidine, reference compound] | 0.87 | 0.58 | 0.44 | 0.16 | – | 0.58 | 0.35 | 0.1 | 1.07 | 1.05 | 0.42 | 0.44 | –
